Measurements: patent US10668135B2, “Methods of treating or preventing periodontitis and diseases associated with periodontitis” (The Trustees of the University of Pennsylvania, priority 2012, dated 2020)
Entries after “also recorded” stand apart in the source; their conditions may differ.

Tests used:
[1] = tested on: ligature-induced periodontitis; assay: Initial NHP study: ligature-induced periodontitis, maxillary posterior teeth, split-mouth, 6 weeks, two animals; type: in vivo, cynomolgus monkey; conditions: for clinical inflammation (inflammatory clinical parameters: probing pocket depth, gingival index, bleeding on probing, mobility index): Cp40 500 μg injected locally into maxillary interdental papillae, from day 3, vs inactive analog on contralateral side, 6 weeks, FIG. 4; for levels of proinflammatory cytokines in the gingival crevicular fluid (GCF): FIG. 5; for numbers of osteoclasts (TRAP-positive multinucleated cells) in bone biopsy specimens / osteoclastogenesis: FIG. 5G
Description: FIG. 4A, FIG. 4B, FIG. 4C, and FIG. 4D show results for probing pocket depth, gingival index, bleeding on probing, and mobility index, respectively, which are measurements typically used to detect clinical periodontal inflammation and bone lose. FIG. 4E represents a radiograph measurement of bone height. Starting 3 days after initiation of ligature-induced periodontitis, Cp40 (500 μg) was injected locally into the maxillary interdental papillae from the 1st premolar to the 2nd molar, in two animals, three times weekly. […] Shown are the effects of Cp40 on the indicated inflammatory clinical parameters and bone heights, determined using standardized X-ray images (taken at week 6) and NIKON imaging system software. Specifically, the distance between the cement-enamel junction (CEJ) and alveolar bone crest (ABC) was measured at six points (1st premolar, distal; 2nd premolar mesial & distal; 1st molar, mesial & distal; 2nd molar mesial) and the data in Panel E reflect the 6-site total. The higher CEJ-ABC distance values of the controls as compared to those of Cp40 treatments signify increased bone loss in the absence of drug treatment. In all animals, the gingival margin was at the cement-enamel junction, and thus, PPD readings equaled clinical attachment loss (CAL).
Specifically, the panels show the relative protein levels for TNF (FIG. 5A), IL-1b (FIG. 5B), IL-6 (FIG. 5C), IL-17A (FIG. 5D), receptor activator of nuclear factor kappa-B ligand (RANKL; FIG. 5E), and osteoprotegerin (OPG; FIG. 5F). At the same timepoints that clinical exams were performed (as per FIGS. 4A-4E), GCF was collected from the same monkeys (treatment details in FIGS. 4A-4E legend) using PERIOPAPER absorbent strips to assay the indicated cytokines. Total cytokine content in the eluted GCF samples was measured using MILLIPLEX MAP (multi-analyte panels) kits on a BIO-PLEX detection system. In FIG. 5G, TRAP-positive multinucleated cells (osteoclasts) were enumerated in nine serial sections for each bone biopsy specimen taken between the 2nd premolar and 1st molar of each animal.
The cynomolgus monkey model is therefore considerably more predictive of drug efficacy in human periodontitis as compared to other, widely used preclinical animal models such as rodents. Moreover, the cynomolgus model of ligature-induced periodontitis allows longitudinal examination of the disease in a way that cannot be performed in humans.
Thus, each animal served as its own control. An initial study with a 6-week duration was conducted using two animals.

[2] = tested on: ligature-induced periodontitis; assay: Second NHP study: ligature-induced periodontitis, mandibular posterior teeth, split-mouth, four monkeys; type: in vivo, cynomolgus monkey; conditions: n=4 monkeys
Description: FIG. 6A, FIG. 6B, FIG. 6C, and FIG. 6D show measurements for probing pocket depth, gingival index, bleeding on probing, and mobility index, respectively, between Cp40 treated and control animals. Starting 3 days after initiation of ligature-induced periodontitis, Cp40 (500 μg) or control were injected locally into the mandibular interdental papillae from the 1st premolar to the 2nd molar, three times weekly, in opposites sides of the mouth (split-mouth design). The effects of Cp40 were determined on the indicated inflammatory clinical parameters at the indicated timepoints. In all animals, the gingival margin was at the cement-enamel junction, and thus, PPD readings equaled clinical attachment loss (CAL). Data are means±SD (n=4 monkeys). *, P<0.05; **, P<0.01 vs. control.
Specifically, levels of TNF-α (FIG. 7A), IL-1β (FIG. 7B), IL-6 (FIG. 7C), interleukin 8 (IL-8; FIG. 7D), IL-17A (FIG. 7E), interleukin 18 (IL-18; FIG. 7F), granulocyte colony-stimulating factor (G-CSF; FIG. 7G), RANKL (FIG. 7H), and OPG (FIG. 7I) were measured. At the same timepoints that clinical exams were performed (as per FIGS. 6A-6D), GCF was collected from the same monkeys (treatment details in FIGS. 6A-6D legend) using PERIOPAPER absorbent strips to assay the indicated cytokines. Total cytokine content in the eluted GCF samples was measured using MILLIPLEX MAP (multi-analyte panels) kits on a BIO-PLEX detection system. Data are means±SD (n=4 monkeys). *, P<0.05; **, P<0.01 vs. control.
FIGS. 8A-8C are graphs showing inhibition of periodontal bone loss following treatment of NHP periodontitis with Cp40. Four monkeys were treated as described in the legend to FIGS. 6A-6D, and their mandibular bone heights (CEJ-ABC distance) were measured using standardized X-ray images (taken at baseline and at week 6) and NIKON imaging system software. Measurements were made at six points (1st premolar, distal; 2nd premolar mesial & distal; 1st molar, mesial & distal; 2nd molar mesial) and the data in FIG. 8A and FIG. 8B reflect, respectively, the 6-site total at baseline (FIG. 8A) and at week 6 (FIG. 8B). For each control or Cp40 treatment, bone loss was calculated as bone height at baseline minus bone height at 6 weeks (FIG. 8C). The difference between Cp40 and control was significant (P<0.05; paired t test).
In a second NHP study, ligature-induced periodontitis was induced by placing ligatures around the mandibular posterior teeth (i.e., in the lower jaw) of the same two animals plus in two additional animals (total of four monkeys). The results obtained (FIGS. 6, 7, and 8) confirmed the results of the original study. Moreover, the presence of four animals allowed the possibility for statistical analysis.

[3] = Cp40 500 μg local, three times weekly, vs inactive analog control

Row | Compound | clinical inflammation (inflammatory clinical parameters: probing pocket depth, gingival index, bleeding on probing, mobility index) ([1]; three times weekly) | levels of proinflammatory cytokines in the gingival crevicular fluid (GCF) [1, 3] | numbers of osteoclasts (TRAP-positive multinucleated cells) in bone biopsy specimens / osteoclastogenesis [1, 3] | bone loss (radiographic bone height, CEJ-ABC distance, 6-site total) ([1]; Cp40 500 μg local, three times weekly, X-ray at week 6, vs inactive analog control, FIG. 4E) | GCF levels of RANKL ([1]; Cp40 500 μg local, three times weekly, vs inactive analog control, FIG. 5E) | GCF levels of osteoprotegerin (OPG) ([1]; Cp40-treated sites vs control sites during the course of the study, FIG. 5F) | probing pocket depth (PPD), protective effect ([2]; Cp40 500 μg injected locally into mandibular interdental papillae, three times weekly, vs control, FIG. 6A) | inflammatory clinical parameters (overall) ([2]; Cp40 500 μg local mandibular, three times weekly, vs control, FIG. 6) | gingival index (GI), protective effect ([2]; Cp40 500 μg local mandibular, three times weekly, vs control, FIG. 6B) | GCF levels of proinflammatory cytokines (cytokine responses) ([2]; Cp40 500 μg local mandibular, three times weekly, vs control, FIG. 7) | periodontal bone loss (bone height at baseline minus bone height at 6 weeks, CEJ-ABC distance) ([2]; Cp40 500 μg local mandibular, three times weekly, vs control, P<0.05 paired t test, FIG. 8C) | GCF RANKL levels ([2]; Cp40 vs. control treatment, FIG. 7H) | GCF OPG levels ([2]; Cp40 vs. control treatment, FIG. 7I)
1 | CC[C@H](C)[C@H](N)C(=O)N[C@H]1CSSC[C@@H](C(=O)N[C@H](C(N)=O)[C@@H](C)O)NC(=O)[C@H](CCCN=C(N)N)NC(=O)[C@H](Cc2cnc[nH]2)NC(=O)[C@H](Cc2cnc[nH]2)NC(=O)CNC(=O)[C@H](Cc2c[nH]c3ccccc23)NC(=O)[C@H](CC(=O)O)NC(=O)[C@H](CCC(N)=O)NC(=O)[C@H](C(C)C)NC(=O)[C@H](C(C)C)NC1=O [Compstatin, Ile-Cys*-Val-Val-Gln-Asp-Trp-Gly-His-His-Arg-Cys*-Thr] | decreased clinical inflammation | reduced levels of proinflammatory cytokines | lower numbers of osteoclasts |  |  |  |  |  |  |  |  |  | 
2 | dTyr-Ile-Cys*-Val-Trp(1Me)-Gln-Asp-Trp-Sar-Ala-His-Arg-Cys*-mIle-NH2 (YICVWQDWGAHRCI; D-Tyr, Trp(1Me), Sar, mIle, disulfide cyclisation, C-terminal amide; compstatin analog (Cp40); MOD_RES (1)..(1) D-Tyrosine; DISULFID (3)..(13) Cysteines joined via disulfide bridge.; MOD_RES (5)..(5) 1-methyl-tryptophan; MOD_RES (9)..(9) …ON, MeGly; MOD_RES (14)..(14) …ON; MOD_RES (14)..(14) AMIDATION) | decreases inflammatory clinical parameters | inhibits proinflammatory cytokine production | decreased osteoclastogenesis | decreased bone loss | decreased GCF levels of RANKL | maintained at higher levels | reached statistical significance | significant inhibition of inflammatory clinical parameters | reached statistical significance | decreased GCF levels of proinflammatory cytokines; also recorded: reached statistical significance | significant inhibition of bone loss | decreased RANKL | increased OPG levels
